Results reported in DBAASP.
Values after ≈ are worked out from the molar mass of the structure shown. Values belong to the molecule of their own block, whether it stands above or below them.

Tests used:
Experiment in all cases: ≥ marks a high value that may be exact or a test limit, other limits are often not marked, values filed in µg/mL are converted to µM
[1] = system: Escherichia coli ATCC 25726
[2] = system: Batrachochytrium dendrobatidis JEL-197
[3] = system: Candida albicans ATCC 90028
[4] = system: Staphylococcus aureus ATCC 25923
[5] = system: Staphylococcus epidermidis
Listeria innocua = system: Listeria innocua
Pasteurella multocida = system: Pasteurella multocida
Escherichia coli = system: Escherichia coli
Leuconostoc lactis = system: Leuconostoc lactis
Staphylococcus aureus = system: Staphylococcus aureus
Bacillus cereus = system: Bacillus cereus
Streptococcus uberis = system: Streptococcus uberis
Micrococcus luteus = system: Micrococcus luteus
[6] = system: Candida albicans ATCC 2002
[7] = system: Staphylococcus aureus ATCC 43300
Escherichia coli ML-35p = system: Escherichia coli ML-35p
Bacillus subtilis = system: Bacillus subtilis
Escherichia coli O111 = system: Escherichia coli O111

MIC [1]: ≥ 50 µM
MIC [2]: 6.25 µM (≈ 16.3 µg/mL)
MIC [4]: 12.5 µM (≈ 32.5 µg/mL)
Compound: CC[C@H](C)[C@@H]1NC(=O)[C@H](CC(C)C)NC(=O)[C@@H](NC(=O)[C@@H](NC(=O)[C@@H](NC(=O)[C@H](CCCCN)NC(=O)[C@@H]2CCCN2C(=O)[C@@H](NC(=O)[C@@H](NC(=O)[C@H](CCCN=C(N)N)NC(=O)[C@H](C)NC(=O)[C@H](C)NC(=O)[C@@H](NC(=O)CNC(=O)[C@H](C)NC(=O)[C@H](CC(C)C)NC(=O)[C@H](CCSC)NC(=O)[C@@H]2CCCN2C(=O)[C@H](Cc2ccccc2)NC(=O)[C@@H](N)Cc2ccccc2)C(C)C)C(C)C)C(C)C)C(C)C)[C@@H](C)CC)CSSC[C@@H](C(=O)O)NC(=O)[C@H](CCCCN)NC(=O)[C@H](CCCCN)NC(=O)[C@H]([C@@H](C)O)NC1=O [FFPMLAGVAARVVPKVICLITKKC]

MIC [5]: 6.83 µM (≈ 12 µg/mL)
MIC (Listeria innocua): 28.4 µM (≈ 50 µg/mL)
MIC (Pasteurella multocida): ≥ 56.9 µM
MIC (Escherichia coli): > 56.9 µM
MIC (Leuconostoc lactis): 1.71 µM (≈ 3 µg/mL)
MIC (Staphylococcus aureus): 56.9 µM (≈ 99.9 µg/mL)
MIC (Bacillus cereus): 14.2 µM (≈ 25 µg/mL)
MIC (Streptococcus uberis): 28.4 µM (≈ 50 µg/mL)
MIC (Micrococcus luteus): 28.4 µM (≈ 50 µg/mL)
Compound: CC[C@H](C)[C@H](NC(=O)[C@@H](NC(=O)[C@H](CO)NC(=O)[C@H](C)NC(=O)[C@@H](NC(=O)[C@H](CCCCN)NC(=O)[C@H](CCCCN)NC(=O)[C@@H](NC(=O)[C@@H](NC(=O)[C@H](CC(=O)O)NC(=O)[C@H](Cc1ccccc1)NC(=O)[C@H](CC(C)C)NC(=O)CN)C(C)C)[C@@H](C)CC)C(C)C)C(C)C)C(=O)N[C@@H](CCCCN)C(=O)N[C@@H](CCCCN)C(=O)N[C@@H](CC(C)C)C(N)=O [GLFDVIKKVASVIKKL]

MIC [5]: 23.5 µM (≈ 50 µg/mL)
MIC (Listeria innocua): ≥ 47.1 µM
MIC (Pasteurella multocida): ≥ 47.1 µM
MIC (Escherichia coli): > 47.1 µM
MIC (Leuconostoc lactis): 2.82 µM (≈ 6 µg/mL)
MIC (Staphylococcus aureus): 23.5 µM (≈ 50 µg/mL)
MIC (Bacillus cereus): ≥ 47.1 µM
MIC (Streptococcus uberis): 23.5 µM (≈ 50 µg/mL)
MIC (Micrococcus luteus): 23.5 µM (≈ 50 µg/mL)
Compound: CC[C@H](C)[C@H](NC(=O)[C@H](C)NC(=O)[C@@H]1CCCN1C(=O)[C@H](CC(C)C)NC(=O)[C@@H](NC(=O)[C@H](Cc1cnc[nH]1)NC(=O)[C@H](CO)NC(=O)[C@@H](NC(=O)[C@@H](NC(=O)[C@H](CO)NC(=O)CNC(=O)[C@H](CC(C)C)NC(=O)[C@H](CC(C)C)NC(=O)CNC(=O)[C@H](CC(C)C)NC(=O)[C@H](CC(C)C)NC(=O)CN)C(C)C)C(C)C)C(C)C)C(=O)N[C@H](C(=O)N[C@@H](CCC(N)=O)C(=O)N[C@@H](Cc1cnc[nH]1)C(=O)N[C@@H](CC(C)C)C(N)=O)[C@@H](C)O [GLLGLLGSVVSHVLPAITQHL]

MIC [1]: ≥ 160 µM
MIC [2]: ≥ 50 µM
MIC [4]: 80 µM (≈ 232 µg/mL)
Compound: CC[C@H](C)[C@H](NC(=O)CN)C(=O)N[C@@H](CC(C)C)C(=O)N[C@@H](CC(=O)O)C(=O)N[C@H](C(=O)N[C@H](C(=O)N[C@@H](CCCCN)C(=O)NCC(=O)N[C@H](C(=O)N[C@@H](C)C(=O)N[C@@H](CCCCN)C(=O)N[C@@H](CC(=O)O)C(=O)N[C@H](C(=O)N[C@@H](C)C(=O)N[C@@H](C)C(=O)N[C@@H](Cc1cnc[nH]1)C(=O)N[C@@H](CC(C)C)C(=O)N[C@@H](CC(C)C)C(=O)N[C@@H](CC(N)=O)C(=O)N[C@@H](CCSC)C(=O)N[C@H](C(=O)N[C@@H](CCCCN)C(=O)N[C@H]1CSSC[C@@H](C(=O)O)NC(=O)CNC(=O)[C@H]([C@@H](C)O)NC(=O)[C@H]([C@@H](C)CC)NC(=O)[C@H](CCCCN)NC1=O)C(C)C)C(C)C)C(C)C)C(C)C)[C@@H](C)O [GILDTVKGVAKDVAAHLLNMVKCKITGC]

MIC [1]: ≥ 50 µM
MIC [2]: 12.5 µM (≈ 31.8 µg/mL)
MIC [3]: 12 µM (≈ 30.6 µg/mL)
MIC [4]: 6 µM (≈ 15.3 µg/mL)
Compound: CC[C@H](C)[C@@H]1NC(=O)[C@H](CC(C)C)NC(=O)[C@@H](NC(=O)[C@@H](NC(=O)[C@H](CC(C)C)NC(=O)[C@H](CCCCN)NC(=O)[C@@H]2CCCN2C(=O)[C@@H](NC(=O)[C@H](CCSC)NC(=O)[C@H](CO)NC(=O)[C@H](C)NC(=O)[C@H](C)NC(=O)[C@H](CC(C)C)NC(=O)CNC(=O)[C@H](C)NC(=O)[C@H](CC(C)C)NC(=O)[C@H](CCSC)NC(=O)[C@@H]2CCCN2C(=O)[C@H](CC(C)C)NC(=O)[C@@H](N)Cc2ccccc2)C(C)C)C(C)C)CSSC[C@@H](C(=O)O)NC(=O)[C@H](CCCCN)NC(=O)[C@H](CCCCN)NC(=O)[C@H]([C@@H](C)O)NC1=O [FLPMLAGLAASMVPKLVCLITKKC]

MIC [5]: ≥ 56.5 µM
MIC (Listeria innocua): ≥ 56.5 µM
MIC (Pasteurella multocida): ≥ 56.5 µM
MIC (Escherichia coli): > 56.5 µM
MIC (Leuconostoc lactis): 6.78 µM (≈ 12 µg/mL)
MIC (Staphylococcus aureus): > 56.5 µM
MIC (Bacillus cereus): ≥ 56.5 µM
MIC (Streptococcus uberis): 28.2 µM (≈ 50 µg/mL)
MIC (Micrococcus luteus): ≥ 56.5 µM
Compound: CC[C@H](C)[C@H](NC(=O)[C@@H](NC(=O)CN)C(C)C)C(=O)N[C@@H](CC(=O)O)C(=O)N[C@@H](C)C(=O)N[C@@H](C)C(=O)N[C@@H](C)C(=O)N[C@@H](CCCCN)C(=O)N[C@H](C(=O)N[C@H](C(=O)N[C@@H](CC(N)=O)C(=O)N[C@H](C(=O)N[C@@H](CC(C)C)C(=O)N[C@@H](CCCCN)C(=O)N[C@@H](CC(N)=O)C(=O)N[C@@H](CC(C)C)C(=O)N[C@@H](Cc1ccccc1)C(N)=O)C(C)C)C(C)C)C(C)C [GVIDAAAKVVNVLKNLF]

The remaining lines, values behind:

Compound: CC[C@H](C)[C@H](NC(=O)[C@H](CO)NC(=O)[C@@H]1CCCN1C(=O)[C@@H](NC(=O)[C@H](CC(C)C)NC(=O)CNC(=O)[C@H](C)NC(=O)[C@H](CC(C)C)NC(=O)[C@@H](NC(=O)[C@@H]1CCCN1C(=O)[C@H](CC(C)C)NC(=O)[C@@H](N)Cc1ccccc1)C(C)C)[C@@H](C)O)C(=O)N[C@H](C(=O)N1CCC[C@H]1C(=O)N[C@@H](CCCCN)C(=O)N[C@@H](CC(C)C)C(=O)N[C@H](C(=O)N[C@H]1CSSC[C@@H](C(=O)O)NC(=O)[C@H](CCCCN)NC(=O)[C@H](CCCCN)NC(=O)[C@H]([C@@H](C)O)NC(=O)[C@H](CC(C)C)NC(=O)[C@H](CC(C)C)NC1=O)C(C)C)C(C)C [FLPVLAGLTPSIVPKLVCLLTKKC]
MIC [1]: ≥ 100 µM
MIC [2]: 12.5 µM (≈ 31.9 µg/mL)
MIC [3]: 25 µM (≈ 63.8 µg/mL)
MIC [4]: 25 µM (≈ 63.8 µg/mL)

Compound: CC[C@H](C)[C@H](NC(=O)CNC(=O)[C@H](C)NC(=O)[C@H](C)NC(=O)[C@@H](NC(=O)[C@H](CCCCN)NC(=O)[C@H](CC(C)C)NC(=O)[C@@H](NC(=O)[C@@H]1CCCN1C(=O)CNC(=O)[C@@H](NC(=O)[C@@H](N)Cc1ccccc1)[C@@H](C)CC)C(C)C)[C@@H](C)CC)C(=O)N[C@@H](CC(C)C)C(=O)N1CCC[C@H]1C(=O)N[C@H](C(=O)N[C@@H](C)C(=O)N[C@H](C(=O)N[C@H]1CSSC[C@@H](C(=O)O)NC(=O)[C@H](CCCCN)NC(=O)[C@H](CCCCN)NC(=O)[C@H](Cc2ccccc2)NC(=O)[C@H]([C@@H](C)CC)NC(=O)[C@H](CCCCN)NC1=O)[C@@H](C)CC)[C@@H](C)O [FIGPVLKIAAGILPTAICKIFKKC]
MIC [6]: 1.84 µM (≈ 4.69 µg/mL)
MIC [7]: 3.69 µM (≈ 9.37 µg/mL)
MIC [4]: 0.919 µM (≈ 2.34 µg/mL)
MIC (Escherichia coli ML-35p): 7.37 µM (≈ 18.7 µg/mL)
MIC (Bacillus subtilis): 1.84 µM (≈ 4.69 µg/mL)

Compound: CC[C@H](C)[C@H](NC(=O)[C@H](CO)NC(=O)[C@@H]1CCCN1C(=O)[C@H](C)NC(=O)CNC(=O)[C@H](CC(C)C)NC(=O)[C@H](CCCN=C(N)N)NC(=O)[C@H](CCSC)NC(=O)[C@H](CCCN=C(N)N)NC(=O)[C@H](CCCN=C(N)N)NC(=O)[C@H](CCC(N)=O)NC(=O)[C@H](Cc1c[nH]c2ccccc12)NC(=O)[C@H](CCC(N)=O)NC(=O)[C@@H](N)Cc1ccc(O)cc1)C(=O)N[C@H](C(=O)O)[C@@H](C)O [YQWQRRMRLGAPSIT]
MIC (Escherichia coli O111): ≥ 322 µM

Compound: CC[C@H](C)[C@H](NC(=O)[C@H](CO)NC(=O)[C@@H]1CCCN1C(=O)[C@H](C)NC(=O)CNC(=O)[C@H](CC(C)C)NC(=O)[C@H](CCCCN)NC(=O)[C@H](CCCN=C(N)N)NC(=O)[C@H](CCSC)NC(=O)[C@H](CCCN=C(N)N)NC(=O)[C@H](CCCN=C(N)N)NC(=O)[C@H](CCC(N)=O)NC(=O)[C@@H](N)Cc1c[nH]c2ccccc12)C(=O)N[C@H](C(=O)O)[C@@H](C)O [WQRRMRKLGAPSIT]
MIC (Escherichia coli O111): ≥ 58.8 µM

Compound: CCC(C)[C@H](N=C(O)C(CO)N=C(O)[C@H](CO)N=C(O)[C@@H](N=C(O)C(CC(C)C)N=C(O)CN)C(C)C)C(O)=NCC(O)=N[C@@H](CCCNC(=N)N)C(O)=N[C@@H](C)C(O)=N[C@@H](CC(C)C)C(O)=NCC(O)=NCC(O)=N[C@@H](CC(C)C)C(O)=N[C@@H](CC(C)C)C(O)=N[C@@H](C)C(O)=NC(CC(=O)O)C(O)=NC(C(O)=N[C@@H](C(O)=N[C@H](CCCCN)C(O)=N[C@H](CO)C(O)=N[C@H](CCCCN)C(O)=NCC(O)=N[C@H](CCC(=N)O)C(=O)N1CCCC1C(O)=N[C@H](C)C(=O)O)C(C)C)C(C)C (some centres not stated) [GLVSSIGRALGGLLADVVKSKGQPA]
MIC [5]: ≥ 41.8 µM
MIC (Listeria innocua): ≥ 41.8 µM
MIC (Pasteurella multocida): 10.4 µM (≈ 25 µg/mL)
MIC (Escherichia coli): > 41.8 µM
MIC (Leuconostoc lactis): ≥ 41.8 µM
MIC (Staphylococcus aureus): > 41.8 µM
MIC (Bacillus cereus): ≥ 41.8 µM
MIC (Streptococcus uberis): ≥ 41.8 µM
MIC (Micrococcus luteus): ≥ 41.8 µM
